15 compounds from US20230203029A1 (priority 2020, published 2023) can be followed below.

The target in test [1] is T1, human AXL cytoplasmic domain (Homo sapiens, UniProt P30530).
T1 construct: human AXL cytoplasmic domain (Thermo Fisher A31515); purchased Thermo Fisher A31515
T1 sequence (P30530 473-894 limits assumed): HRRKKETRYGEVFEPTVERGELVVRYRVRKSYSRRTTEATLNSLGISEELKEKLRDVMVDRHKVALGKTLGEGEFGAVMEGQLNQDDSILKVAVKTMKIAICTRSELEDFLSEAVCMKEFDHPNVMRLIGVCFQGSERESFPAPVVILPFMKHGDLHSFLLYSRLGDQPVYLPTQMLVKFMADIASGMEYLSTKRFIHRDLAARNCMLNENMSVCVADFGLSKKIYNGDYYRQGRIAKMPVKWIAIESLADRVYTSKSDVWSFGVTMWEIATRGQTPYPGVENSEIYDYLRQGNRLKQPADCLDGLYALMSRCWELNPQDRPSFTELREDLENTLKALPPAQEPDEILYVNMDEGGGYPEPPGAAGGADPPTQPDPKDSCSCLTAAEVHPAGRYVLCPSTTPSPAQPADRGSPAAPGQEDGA
As to the kind of experiment: Assay 1b AXL HTRF KinEASE-TK assay. Type of test: biochemical. The method in brief: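 Recombinant cytoplasmic domain (5 nM) in kinase buffer with 5 mM MgCl2, 1 mM MnCl2, 1 mM DTT, 50 nM SEB plus test compounds; reaction 30 min at room temperature. EDTA-containing detection with TK antibody-cryptate/streptavidin-XL665 for 60 min; HTRF 665/620 ratio read. IC50 from 4-parameter logistic fit with variable slope.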

Test [2] deals with T2, Ba/F3 Pro B-cell line expressing BCR-human AXL kinase domain fusion protein (Homo sapiens, UniProt P30530).
T2 construct: P11274 (Breakpoint cluster region protein)
T2 sequence (P30530 536-807 limits assumed): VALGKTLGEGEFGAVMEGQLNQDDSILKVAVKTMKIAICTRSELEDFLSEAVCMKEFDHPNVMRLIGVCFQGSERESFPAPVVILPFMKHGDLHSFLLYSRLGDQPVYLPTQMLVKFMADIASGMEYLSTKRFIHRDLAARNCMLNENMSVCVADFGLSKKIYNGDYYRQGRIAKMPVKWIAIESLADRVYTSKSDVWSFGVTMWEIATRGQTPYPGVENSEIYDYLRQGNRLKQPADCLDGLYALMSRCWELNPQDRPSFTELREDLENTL
As to the kind of experiment: Assay 5 Ba/F3 cell survival assay, BCR-Axl. Type of test: cell-based. The note with it: read-out: BCR-Axl Ba/F3 IC50, 48 h, CellTiter-Glo. The method in brief: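 Ba/F3 cells dependent on BCR-AXL or TEL-MERTK fusion kinase (IL3-free; IL3 only for control lines) treated with compound 48 h at 37 °C, 0.25% DMSO. Viability by CellTiter-Glo luminescence; IC50 for half-maximal inhibition of survival from 4-parameter variable-slope fit.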

Test [3] deals with BCR-Ba/F3 control cell line. As to the kind of experiment: Assay 5 Ba/F3 cell survival assay, BCR-none control line. It is filed as cell-based. The conditions noted are these: Mus musculus, BaF3. Here is the method: Assay 5—Ba/F3 Cell Survival Assays.
The inhibitory potencies of compounds were assessed in a Ba/F3 cell survival assay, using the Ba/F3 Pro B-cell line, recombinantly expressing a BCR-human AXL kinase domain fusion protein (pACD320/AXL, Advanced Cellular Dynamics Inc), TEL-human MERTK fusion domain (pACD1000/MERTK, Advanced Cellular Dynamics Inc), TEL-human Tyro3 fusion domain (pACD1000/TYRO3, Advanced Cellular Dynamics Inc), or control TEL-none (ACD320, Advanced Cellular Dynamics Inc) BRC-none constructs (ACD1000, Advanced Cellular Dynamics Inc). 10 ng/mL recombinant murine IL3 (R&D, 403-ML-010) was included in the media when propagating negative control TEL-none or BCR-none lines only. Cells were maintained in RMPI 1640 (Corning 15-040-CV) culture media containing 10% heat inactivated semi-synthetic FBS (RMBIO FGR-BBT), 2 mM L-Glutamine (Sigma, G7513), 100 IU/mL Penicillin-[…] Streptomycin (Sigma, P4333), and 500 ng/mL Puromycin (Sigma, P8833). Experiments were performed in 50 μl growth media, including the test compounds of interest, and dispensing 5000 cells/well in logarithmic-phase growth into a 384 well white Optiplate (Perkin Elmer 6007299). […] The final assay DMSO concentration was 0.25%. […]
The plate was then equilibrated for 5 min at room temperature and luminescence read on a BMG Pherastar FSX using the LUM plus optic module. […]

In the case of `CN1CCC(NC(=O)c2cc3c(Nc4ccc(NC(=O)c5cccn(-c6ccccc6)c5=O)cc4)ccnc3cn2)CC1` [Example 3, N-(1-methyl-4-piperidyl)-4-[4-[(2-oxo-1-phenyl-pyridine-3-carbonyl)amino]anilino]-1,7-naphthyridine-6-carboxamide], the IC50 in test [1] amounted to 200 nM; in test [2], 45 nM.

On to `O=C(Nc1ccc(Oc2ccnc3cnc(N4CCNCC4)cc23)cc1)c1cccn(-c2ccc(F)cc2)c1=O` [Example 12.2, 1-(4-fluorophenyl)-2-oxo-N-[4-[(6-piperazin-1-yl-1,7-naphthyridin-4-yl)oxy]phenyl]pyridine-3-carboxamide], for which the IC50 in test [1] came to 16 nM; in test [2], 48 nM.

Turning to `CC(C)n1cc(C(=O)Nc2ccc(Oc3ccnc4cnc(N5CCNCC5)cc34)cc2)c(=O)n(-c2ccccn2)c1=O` [Example 12.3, 1-isopropyl-2,4-dioxo-N-[4-[(6-piperazin-1-yl-1,7-naphthyridin-4-yl)oxy]phenyl]-3-(2-pyridyl)pyrimidine-5-carboxamide], the figures for the IC50 in test [1] and in test [2] were 19 nM and 64 nM, respectively.

Turning to `CC(C)n1cc(C(=O)Nc2ccc(Oc3ccnc4cnc(N5CCNCC5)cc34)cc2)c(=O)n(-c2ccc(F)cn2)c1=O` [Example 12.4, 3-(5-fluoro-2-pyridyl)-1-isopropyl-2,4-dioxo-N-[4-[(6-piperazin-1-yl-1,7-naphthyridin-4-yl)oxy]phenyl]pyrimidine-5-carboxamide], the IC50 in test [1] is 6 nM; in test [2], 12 nM.

Consider `CC(C)n1cc(C(=O)Nc2ccc(Oc3ccnc4cnc(N5CCNCC5)cc34)cc2)c(=O)c(-c2ccc(F)cc2)c1` [Example 13, 5-(4-Fluorophenyl)-1-isopropyl-4-oxo-N-[4-[(6-piperazin-1-yl-1,7-naphthyridin-4-yl)oxy]phenyl]pyridine-3-carboxamide], for which the IC50 is 6 nM in test [1] and 13 nM in test [2].

Regarding `Cn1cc(C(=O)Nc2ccc(Oc3ccnc4cnc(N5CCNCC5)cc34)cc2)c(=O)c(-c2ccc(F)cc2)c1` [Example 13.1, 5-(4-fluorophenyl)-1-methyl-4-oxo-N-[4-[(6-piperazin-1-yl-1,7-naphthyridin-4-yl)oxy]phenyl]pyridine-3-carboxamide], the IC50 in test [1] is 10 nM; in test [2], 22 nM.

Turning to `C[C@H](CO)n1cc(C(=O)Nc2ccc(Oc3ccnc4cnc(C(=O)NC5CCN(C)CC5)cc34)cc2)c(=O)n(-c2ccc(F)cc2)c1=O` [Example 14, 4-[4-[[3-(4-Fluorophenyl)-2,4-dioxo-1-[(1R)-2-hydroxy-1-methyl-ethyl]pyrimidine-5-carbonyl]amino]phenoxy]-N-(1-methyl-4-piperidyl)-1,7-naphthyridine-6-carboxamide], the IC50 is 10 nM in test [1] and 7 nM in test [2].

Take `CN1CCC(NC(=O)c2cc3c(Oc4ccc(NC(=O)c5cn(C6CC6)c(=O)n(-c6ccc(F)cc6)c5=O)cc4)ccnc3cn2)CC1` [Example 15, 4-[4-[[1-Cyclopropyl-3-(4-fluorophenyl)-2,4-dioxo-pyrimidine-5-carbonyl]amino]phenoxy]-N-(1-methyl-4-piperidyl)-1,7-naphthyridine-6-carboxamide]: the IC50 in test [1] came out at 10 nM; in test [2] it was 14 nM.

Turning to `O=C(Nc1ccc(Oc2ccnc3cnc(N4CCN(C5COC5)CC4)cc23)cn1)c1ccnn(-c2ccc(F)cc2)c1=O` [Example 20, 2-(4-fluorophenyl)-N-[5-[[6-[4-(oxetan-3-yl)piperazin-1-yl]-1,7-naphthyridin-4-yl]oxy]-2-pyridyl]-3-oxo-pyridazine-4-carboxamide], the IC50 was 7 nM in test [1], 16 nM in test [2] and 830 nM in test [3].

With `CC(C)n1cc(C(=O)Nc2ccc(Oc3ccnc4cnc(C(=O)NC5CCN(C)CC5)cc34)cn2)c(=O)n(-c2ccc(F)cc2)c1=O` [Example 27.5, 4-[[6-[[3-(4-fluorophenyl)-1-isopropyl-2,4-dioxo-pyrimidine-5-carbonyl]amino]-3-pyridyl]oxy]-N-(1-methyl-4-piperidyl)-1,7-naphthyridine-6-carboxamide], the IC50 in test [1] is 9 nM; in test [2], 2 nM.

Consider `Cc1cc(NC(=O)c2cccn(-c3ccccc3)c2=O)ccc1Oc1ccnc2cnc(N3CCNCC3)cc12` [Example 30, N-[3-methyl-4-[(6-piperazin-1-yl-1,7-naphthyridin-4-yl)oxy]phenyl]-2-oxo-1-phenyl-pyridine-3-carboxamide], for which the IC50 was found to be 870 nM in test [1] and 470 nM in test [2].

As to `CN1CCC(NC(=O)c2cc3c(Oc4ccc(NC(=O)c5cccn(-c6ccccc6)c5=O)cc4F)ccnc3cn2)CC1` [Example 33, 4-[2-fluoro-4-[(2-oxo-1-phenyl-pyridine-3-carbonyl)amino]phenoxy]-N-(1-methyl-4-piperidyl)-1,7-naphthyridine-6-carboxamide], the IC50 in test [1] was 38 nM; in test [2] it was 30 nM.

With `O=C(Nc1ccc(Oc2ccnc3cnc(N4CCNCC4)cc23)cc1)c1cn(C2CC2)c(=O)n(-c2ccc(F)cc2)c1=O` [Example 36, 1-cyclopropyl-3-(4-fluorophenyl)-2,4-dioxo-N-[4-[(6-piperazin-1-yl-1,7-naphthyridin-4-yl)oxy]phenyl]pyrimidine-5-carboxamide], the IC50 is 5 nM in test [1] and 34 nM in test [2].

As for `CN1CCC(NC(=O)c2cc3c(Oc4ccc(NC(=O)c5cn(C)cc(-c6ccc(F)cc6)c5=O)cc4)ccnc3cn2)CC1` [Example 37, 4-[4-[[5-(4-fluorophenyl)-1-methyl-4-oxo-pyridine-3-carbonyl]amino]phenoxy]-N-(1-methyl-4-piperidyl)-1,7-naphthyridine-6-carboxamide], the IC50 is 7 nM in test [1] and 17 nM in test [2].

On to `CC(C)n1cc(C(=O)Nc2ccc(Oc3ccnc4cnc(C(=O)NC5CCN(C)CC5)cc34)cc2)c(=O)c(-c2ccc(F)cc2)c1` [Example 37.1, 4-[4-[[5-(4-fluorophenyl)-1-isopropyl-4-oxo-pyridine-3-carbonyl]amino]phenoxy]-N-(1-methyl-4-piperidyl)-1,7-naphthyridine-6-carboxamide], for which the IC50 in test [1] is 5 nM; in test [2], 2 nM.
